Test results published in patent US9657351B2, “MRNA-based gene expression for personalizing patient cancer therapy with an MDM2 antagonist” (Hoffmann-La Roche Inc., priority 2013, dated 2017).

Legend:
Assay in all cases: COMPOUND A In Vitro Assay
Format in all cases: cell-based
[1] = system: LNCaP clone FGC; conditions: Homo sapiens
Procedure, shortened: (§1)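 MDM2 antagonist RG7112 was tested on a broad human tumour cell line collection in a high-throughput screen. Reported values are IC50s.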

[2] = system: HCT-15; conditions: Homo sapiens, Intestine, large, colon, TP53 Mutant
Procedure, shortened: as §1

[3] = system: HEL; conditions: Homo sapiens, Lymphocyte, peripheral blood, TP53 Mutant
Procedure, shortened: as §1

[4] = system: NCI-H23; conditions: Homo sapiens, Lung, TP53 NA
Procedure, shortened: as §1

[5] = system: HT-1197; conditions: Homo sapiens
Procedure, shortened: as §1

[6] = system: THP-1; conditions: Homo sapiens, Blood, TP53 Mutant
Procedure, shortened: as §1

[7] = system: NCI-H1838; conditions: Homo sapiens, Lung, TP53 Mutant
Procedure, shortened: as §1

[8] = system: SKM-1; conditions: Homo sapiens, Lymphocyte, peripheral blood, TP53 Mutant
Procedure, shortened: as §1

[9] = system: ABC-1; conditions: Homo sapiens, Lung, TP53 Mutant
Procedure, shortened: as §1

[10] = system: SCH; conditions: Homo sapiens, Stomach, TP53 Mutant
Procedure, shortened: as §1

[11] = system: NCI-H526; conditions: Homo sapiens, Lung, TP53 Mutant
Procedure, shortened: as §1

[12] = system: COLO 320DM; conditions: Homo sapiens, Intestine, large, colon, TP53 Mutant
Procedure, shortened: as §1

[13] = system: SH-SY5Y; conditions: Homo sapiens
Procedure, shortened: as §1

[14] = system: HCC1806; conditions: Homo sapiens, Breast, mammary gland, TP53 Mutant
Procedure, shortened: as §1

[15] = system: AsPC-1; conditions: Homo sapiens, ASPC1, Pancreas, TP53 Mutant
Procedure, shortened: as §1

[16] = system: COLO-704; conditions: Homo sapiens, Ovary, TP53 Wild type
Procedure, shortened: as §1

[17] = system: HT-29; conditions: Homo sapiens, Intestine, large, colon, TP53 Mutant
Procedure, shortened: as §1

[18] = system: HuH-28; conditions: Homo sapiens, Gall bladder, TP53 Mutant
Procedure, shortened: as §1

[19] = system: NCI-H446; conditions: Homo sapiens, Lung, TP53 Mutant
Procedure, shortened: as §1

[20] = system: MDA-MB-361; conditions: Homo sapiens, Breast, mammary gland, TP53 Mutant
Procedure, shortened: as §1

[21] = system: HT-1080; conditions: Homo sapiens
Procedure, shortened: as §1

[22] = system: Calu-6; conditions: Homo sapiens, Lung, TP53 Mutant
Procedure, shortened: as §1

[23] = system: AN3 CA; conditions: Homo sapiens, Uterus, endometrium, TP53 Mutant
Procedure, shortened: as §1

[24] = system: HT-1376; conditions: Homo sapiens, Urinary, bladder, TP53 Mutant
Procedure, shortened: as §1

[25] = system: CAMA-1; conditions: Homo sapiens, Breast, mammary gland, TP53 Mutant
Procedure, shortened: as §1

[26] = system: RT4; conditions: Homo sapiens, RT-4, Urinary, bladder, TP53 Wild type
Procedure, shortened: as §1

[27] = system: SU•86•86; conditions: Homo sapiens, SU.86.86, Pancreas, TP53 Mutant
Procedure, shortened: as §1

[28] = system: 5637; conditions: Homo sapiens, Urinary, bladder, TP53 Mutant
Procedure, shortened: as §1

[29] = system: NUGC-3; conditions: Homo sapiens, Stomach, TP53 Mutant
Procedure, shortened: as §1

[30] = system: CMK-11-5; conditions: Homo sapiens, Lymphocyte, TP53 Mutant
Procedure, shortened: as §1

[31] = system: T24; conditions: Homo sapiens, T-24, Urinary, bladder, TP53 Mutant
Procedure, shortened: as §1

[32] = system: NCI-H2228; conditions: Homo sapiens, Lung, TP53 Mutant
Procedure, shortened: as §1

[33] = system: MDA-MB-435S; conditions: Homo sapiens, Skin, TP53 Mutant
Procedure, shortened: as §1

[34] = system: MFE-280; conditions: Homo sapiens, Uterus, endometrium, TP53 Mutant
Procedure, shortened: as §1

[35] = system: Kasumi-1; conditions: Homo sapiens, Lymphocyte, peripheral blood, TP53 Mutant
Procedure, shortened: as §1

[36] = system: NCI-H209; conditions: Homo sapiens, Lung, TP53 Mutant
Procedure, shortened: as §1

[37] = system: MKN-74; conditions: Homo sapiens
Procedure, shortened: as §1

[38] = system: NCI-H1793; conditions: Homo sapiens, Lung, TP53 Mutant
Procedure, shortened: as §1

SMILES: CCOc1cc(C(C)(C)C)ccc1C1=N[C@@](C)(c2ccc(Cl)cc2)[C@@](C)(c2ccc(Cl)cc2)N1C(=O)N1CCN(CCCS(C)(=O)=O)CC1 [COMPOUND A]
- IC50 ([1]; LNCaP clone FGC cells): 0.2 µM
- IC50 ([1]; LNCaP clone FGC, tissue NA, TP53 Wild type): 0.17 µM
- IC50 [2]: 7.6 µM
- IC50 [3]: 17 µM
- IC50 [4]: 10 µM
- IC50 ([5]; HT1197, HT-1197, Urinary, bladder, TP53 Wild type): 0.19 µM
- IC50 ([5]; HT1197, HT-1197 cells): 0.2 µM
- IC50 [6]: 9.7 µM
- IC50 [7]: 9.8 µM
- IC50 [8]: 19 µM
- IC50 [9]: 9.9 µM
- IC50 [10]: 17 µM
- IC50 [11]: 16 µM
- IC50 [12]: 12 µM
- IC50 ([13]; Brain, TP53 Wild type): 0.75 µM
- IC50 ([13]; SH-SY5Y cells): 0.8 µM
- IC50 [14]: 11 µM
- IC50 [15]: 19 µM
- IC50 [16]: 20 µM
- IC50 [17]: 7.4 µM
- IC50 [18]: 15 µM
- IC50 [19]: 18 µM
- IC50 [20]: 21 µM
- IC50 ([21]; HT-1080, HT-1080, Connective tissue, TP53 Wild type): 0.058 µM
- IC50 ([21]; HT-1080, HT-1080 cells): 0.1 µM
- IC50 [22]: 17 µM
- IC50 [23]: 18 µM
- IC50 [24]: 16 µM
- IC50 [25]: 22 µM
- IC50 [26]: 2.4 µM
- IC50 [27]: 6.7 µM
- IC50 [28]: 8.5 µM
- IC50 [29]: 9.8 µM
- IC50 [30]: 9.6 µM
- IC50 [31]: 21 µM
- IC50 [32]: 9.8 µM
- IC50 [33]: 12 µM
- IC50 [34]: 23 µM
- IC50 [35]: 21 µM
- IC50 [36]: 11 µM
- IC50 ([37]; MKN-74, MKN-74, Muscle, smooth, stomach, TP53 Wild type): 0.88 µM
- IC50 ([37]; MKN-74, MKN-74 cells): 0.9 µM
- IC50 [38]: 10 µM
